Test results: ChEMBL document CHEMBL3045446, “In vitro antimicrobial and antimycobacterial activity of some chalcones and their derivatives” (2013)
In brackets after ≈: the same amount, converted by molar mass.

Columns and labels:
Assay type in all cases: functional
[1] = tested on: Pseudomonas aeruginosa; assay: Antimicrobial activity against Pseudomonas aeruginosa MTCC 741 assessed as diameter of growth inhibition zone after 24 hr
[2] = tested on: Mycobacterium tuberculosis; assay: Antituberculosis activity against Mycobacterium tuberculosis H37Rv assessed as growth inhibition after 12 to 28 days by L-J MIC method; conditions: for MIC: Mycobacterium tuberculosis, H37Rv
[3] = tested on: Klebsiella pneumoniae; assay: Antimicrobial activity against Klebsiella pneumoniae MTCC 109 assessed as growth inhibition after 24 hr by agar streak dilution method; conditions: MTCC 109, 24 h
[4] = tested on: Candida albicans; assay: Antimicrobial activity against Candida albicans MTCC 183 assessed as diameter of growth inhibition zone after 48 hr
[5] = tested on: Shigella flexneri; assay: Antimicrobial activity against Shigella flexneri MTCC1457 assessed as diameter of growth inhibition zone after 24 hr
[6] = tested on: Klebsiella pneumoniae; assay: Antimicrobial activity against Klebsiella pneumoniae MTCC 109 assessed as diameter of growth inhibition zone after 24 hr
[7] = tested on: Aspergillus niger; assay: Antimicrobial activity against Aspergillus niger MTCC 282 assessed as growth inhibition after 48 hr by agar streak dilution method; conditions: MTCC 282, 48 h
[8] = tested on: Proteus vulgaris; assay: Antimicrobial activity against Proteus vulgaris MTCC 1771 assessed as growth inhibition after 24 hr by agar streak dilution method; conditions: MTCC 1771, 24 h
[9] = tested on: Pseudomonas aeruginosa; assay: Antimicrobial activity against Pseudomonas aeruginosa MTCC 741 assessed as growth inhibition after 24 hr by agar streak dilution method; conditions: MTCC 741, 24 h
[10] = tested on: Staphylococcus aureus; assay: Antimicrobial activity against Staphylococcus aureus MTCC 96 assessed as diameter of growth inhibition zone after 24 hr
[11] = tested on: Salmonella typhi; assay: Antimicrobial activity against Salmonella enterica subsp. enterica serovar Typhi MTCC 733 assessed as growth inhibition after 24 hr by agar streak dilution method; conditions: MTCC 733, 24 h
[12] = tested on: Bacillus cereus; assay: Antimicrobial activity against Bacillus cereus MTCC 430 assessed as diameter of growth inhibition zone after 24 hr
[13] = tested on: Aspergillus clavatus; assay: Antimicrobial activity against Aspergillus clavatus MTCC 1323 assessed as growth inhibition after 48 hr by agar streak dilution method; conditions: MTCC 1323, 48 h
[14] = tested on: Escherichia coli; assay: Antimicrobial activity against Escherichia coli MTCC 739 assessed as diameter of growth inhibition zone after 24 hr
[15] = tested on: Aspergillus niger; assay: Antimicrobial activity against Aspergillus niger MTCC 282 assessed as diameter of growth inhibition zone after 48 hr
[16] = tested on: Bacillus cereus; assay: Antimicrobial activity against Bacillus cereus MTCC 430 assessed as growth inhibition after 24 hr by agar streak dilution method; conditions: MTCC 430, 24 h
[17] = tested on: Shigella flexneri; assay: Antimicrobial activity against Shigella flexneri MTCC1457 assessed as growth inhibition after 24 hr by agar streak dilution method; conditions: MTCC1457, 24 h
[18] = tested on: Escherichia coli; assay: Antimicrobial activity against Escherichia coli MTCC 739 assessed as growth inhibition after 24 hr by agar streak dilution method; conditions: MTCC 739, 24 h
[19] = tested on: Candida albicans; assay: Antimicrobial activity against Candida albicans MTCC 183 assessed as growth inhibition after 48 hr by agar streak dilution method; conditions: MTCC 183, 48 h
[20] = tested on: Salmonella typhi; assay: Antimicrobial activity against Salmonella enterica subsp. enterica serovar Typhi MTCC 733 assessed as diameter of growth inhibition zone after 24 hr
[21] = tested on: Aspergillus fumigatus; assay: Antimicrobial activity against Aspergillus fumigatus MTCC 343 assessed as diameter of growth inhibition zone after 48 hr
[22] = tested on: Staphylococcus aureus; assay: Antimicrobial activity against Staphylococcus aureus MTCC 96 assessed as growth inhibition after 24 hr by agar streak dilution method; conditions: MTCC 96, 24 h
[23] = tested on: Aspergillus clavatus; assay: Antimicrobial activity against Aspergillus clavatus MTCC 1323 assessed as diameter of growth inhibition zone after 48 hr
[24] = tested on: Aspergillus fumigatus; assay: Antimicrobial activity against Aspergillus fumigatus MTCC 343 assessed as growth inhibition after 48 hr by agar streak dilution method; conditions: MTCC 343, 48 h
[25] = tested on: Proteus vulgaris; assay: Antimicrobial activity against Proteus vulgaris MTCC 1771 assessed as diameter of growth inhibition zone after 24 hr

Row | Structure (SMILES) | diameter of the inhibition zone (DIZ) [1] [mm] | growth inhibition (GI) [2] [%] | MIC [2] [µg/mL] | MIC [3] [µg/mL] | diameter of the inhibition zone (DIZ) [4] [mm] | diameter of the inhibition zone (DIZ) [5] [mm] | diameter of the inhibition zone (DIZ) [6] [mm] | MIC [7] [µg/mL] | MIC [8] [µg/mL] | MIC [9] [µg/mL] | diameter of the inhibition zone (DIZ) [10] [mm] | MIC [11] [µg/mL] | diameter of the inhibition zone (DIZ) [12] [mm] | MIC [13] [µg/mL] | diameter of the inhibition zone (DIZ) [14] [mm] | diameter of the inhibition zone (DIZ) [15] [mm] | MIC [16] [µg/mL] | MIC [17] [µg/mL] | MIC [18] [µg/mL] | MIC [19] [µg/mL] | further results
1 | COc1ccc(C2CC(c3ccc(Nc4cc(=O)oc5ccccc45)cc3)=NN2C(C)=O)cc1OC (centres undefined) | 20 | 98 | 100 (≈ 207 µM) | 25 (≈ 51.7 µM) | 22 | 23 | 22 | 25 (≈ 51.7 µM) | 50 (≈ 103 µM) | 50 (≈ 103 µM) | 20 | 25 (≈ 51.7 µM) | 18 | 50 (≈ 103 µM) | 21 | 23 | 50 (≈ 103 µM) | 12.5 (≈ 25.9 µM) | 25 (≈ 51.7 µM) | 25 (≈ 51.7 µM) | diameter of the inhibition zone (DIZ) [20]: 21 mm; diameter of the inhibition zone (DIZ) [21]: 19 mm; MIC [22]: 25 µg/mL (≈ 51.7 µM); diameter of the inhibition zone (DIZ) [23]: 20 mm; MIC [24]: 50 µg/mL (≈ 103 µM); diameter of the inhibition zone (DIZ) [25]: 20 mm
2 | N#Cc1c(-c2ccc(O)cc2O)cc(-c2ccc(Nc3cc(=O)oc4ccccc34)cc2)nc1N | 27 | 97 | 100 (≈ 216 µM) | 3.12 (≈ 6.75 µM) | 23 | 26 | 30 | 12.5 (≈ 27 µM) | 12.5 (≈ 27 µM) | 6.25 (≈ 13.5 µM) | 22 | 3.12 (≈ 6.75 µM) | 26 | 6.25 (≈ 13.5 µM) | 24 | 22 | 6.25 (≈ 13.5 µM) | 6.25 (≈ 13.5 µM) | 12.5 (≈ 27 µM) | 12.5 (≈ 27 µM) | diameter of the inhibition zone (DIZ) [20]: 28 mm; diameter of the inhibition zone (DIZ) [21]: 25 mm; MIC [22]: 12.5 µg/mL (≈ 27 µM); diameter of the inhibition zone (DIZ) [23]: 27 mm; MIC [24]: 6.25 µg/mL (≈ 13.5 µM); diameter of the inhibition zone (DIZ) [25]: 23 mm
3 | CC(=O)N1N=C(c2ccc(Nc3cc(=O)oc4ccccc34)cc2)CC1c1ccc(F)cc1 (centres undefined) | 17 | 98 | 100 (≈ 227 µM) | 12.5 (≈ 28.3 µM) | 16 | 20 | 23 | 25 (≈ 56.6 µM) | 25 (≈ 56.6 µM) | 50 (≈ 113 µM) | 23 | 50 (≈ 113 µM) | 22 | 50 (≈ 113 µM) | 20 | 20 | 12.5 (≈ 28.3 µM) | 25 (≈ 56.6 µM) | 50 (≈ 113 µM) | 50 (≈ 113 µM) | diameter of the inhibition zone (DIZ) [20]: 18 mm; diameter of the inhibition zone (DIZ) [21]: 22 mm; MIC [22]: 12.5 µg/mL (≈ 28.3 µM); diameter of the inhibition zone (DIZ) [23]: 20 mm; MIC [24]: 25 µg/mL (≈ 56.6 µM); diameter of the inhibition zone (DIZ) [25]: 21 mm
4 | N#Cc1c(-c2ccc(Cl)cc2Cl)cc(-c2ccc(Nc3cc(=O)oc4ccccc34)cc2)nc1N | 25 | 99 | 25 (≈ 50.1 µM) | 12.5 (≈ 25 µM) | 23 | 23 | 23 | 12.5 (≈ 25 µM) | 3.12 (≈ 6.25 µM) | 6.25 (≈ 12.5 µM) | 28 | 12.5 (≈ 25 µM) | 26 | 25 (≈ 50.1 µM) | 20 | 22 | 6.25 (≈ 12.5 µM) | 12.5 (≈ 25 µM) | 12.5 (≈ 25 µM) | 12.5 (≈ 25 µM) | diameter of the inhibition zone (DIZ) [20]: 24 mm; diameter of the inhibition zone (DIZ) [21]: 23 mm; MIC [22]: 3.12 µg/mL (≈ 6.25 µM); diameter of the inhibition zone (DIZ) [23]: 22 mm; MIC [24]: 12.5 µg/mL (≈ 25 µM); diameter of the inhibition zone (DIZ) [25]: 28 mm
